# Data taken from PubChem BioAssay (NCI).
# Several values for one entry are separate records, joined by “and”; a condition that tells them apart may be missing. Identical values can stand only once.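 Values below derive from 48-hour exposures of cells grown in 96-well plates, with endpoints linearly interpolated between the two concentrations bracketing the appropriate inhibition level. At the GI50, growth is halved. TGI: concentration producing complete growth inhibition.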
# Test system: SR leukemia
# Test: NCI-60 cell line screen, 48 h
SMILES,GI50 [µM],TGI [µM]
CC(C)[C@@H]1C=C2CC[C@H]3[C@](C)(CN)CCC[C@]3(C)[C@H]2CC1,2.78,12.4
O=CNc1ccc2c(c1)C(=O)c1ccccc1-2,,> 100
O=C(Nc1ccc(Oc2ccc(Nc3nc4ccccc4s3)cc2)cc1)Nc1ccc(Cl)c(C(F)(F)F)c1,1.32,5.81
Nc1c(C(=O)Nc2cccc(C(F)(F)F)c2)sc2nc3c(cc12)CCCCC3,4.03,21.7
Nc1ccc(C2=NNC(=O)Cc3cc4c(cc32)OCCO4)cc1Cl,1.37,> 50
COc1ccc2nc3cc(Cl)ccc3c(NCCNCC(C)O)c2c1 (configuration not stated),1.09,8.04
CCn1c(-c2nonc2N)nc2c(C#CC(C)(C)O)nc(OC[C@@H](N)c3ccccc3)cc21,5.67,16.8
Cn1ccc2c3c(Oc4ccc(NC(N)=O)cc4)ccnc3ccc21,> 100,> 100
Nc1n[nH]c2cc(F)c([C@@H]3Nc4ccc5[nH]ncc5c4[C@H]4C5CCC(C5)[C@@H]34)cc12 (some centres not stated),0.125,> 50
COc1ccc(CCN=C2NC(=O)/C(=C/c3ccc4ncccc4c3)S2)cc1,12.6,> 25
COC[C@H]1Cn2cc(-c3nc(Nc4ccnn4C)ncc3C)nc2C(=O)N1Cc1ccc(F)c(F)c1,> 100,> 100

# Test system: U251 CNS
# Test: NCI-60 cell line screen, 48 h
SMILES,GI50,TGI [µM]
O=C(CCCSc1nc(-c2ccccc2)cc(-c2ccccc2)n1)NO,1.24 µM,3.2
CC1SC(c2ccc(F)cc2)N(NC(=O)C(O)c2ccccc2)C1=O (configuration not stated),> 100 µM,> 100
COCCOc1ccc(-c2nc3ccc(-c4nc5ccc(N6CCN(C)CC6)cc5[nH]4)cc3[nH]2)cc1,0.659 µM,10.2
Nc1n[nH]c2cccc(C#Cc3cccc(C(=O)Nc4ccc(CN5CCOCC5)c(C(F)(F)F)c4)c3)c12,2.75 µM,15.2
CCC(=C/[C@H](C)C/C=C/C(C)=C/[C@@H](C)C(=O)[C@@H](C)[C@H](O)[C@@H](C)CC)/C=C/[C@H]1OC(=O)C=C[C@@H]1C,< 0.01 µM,1.36
Nc1ccccc1SC(CC(=O)c1ccccc1)c1cccc([N+](=O)[O-])c1 (configuration not stated),7.51 µM,20.7
CN1CC[C@@H](NC(=O)Nc2ccc(C#N)cc2)C[C@@H]1c1nc2ccccc2[nH]1,> 100 µM,> 100
COc1ccc2nc(NC(=O)CSc3nnc4n3S(=O)(=O)c3ccccc3N4c3ccccc3)sc2c1,52.4 µM,> 100
O=C1NC(=NC(CO)Cc2ccccc2)S/C1=C\c1ccc2ncccc2c1 (configuration not stated),> 20.9 µM and 2.29 µM,> 25
Cc1nnc(NC(=O)c2nc(S(=O)(=O)Cc3ccc(F)cc3)ncc2Cl)s1,4.12 µM,15.5
CC(C)[C@@H]1C=C2CC[C@H]3[C@](C)(CN)CCC[C@]3(C)[C@H]2CC1,1.76 µM,3.28
O=CNc1ccc2c(c1)C(=O)c1ccccc1-2,,> 100
O=C(Nc1ccc(Oc2ccc(Nc3nc4ccccc4s3)cc2)cc1)Nc1ccc(Cl)c(C(F)(F)F)c1,1.61 µM,3.55
Nc1c(C(=O)Nc2cccc(C(F)(F)F)c2)sc2nc3c(cc12)CCCCC3,2.2 µM,7.98
Nc1ccc(C2=NNC(=O)Cc3cc4c(cc32)OCCO4)cc1Cl,3.68 µM,> 50
COc1ccc2nc3cc(Cl)ccc3c(NCCNCC(C)O)c2c1 (configuration not stated),1.99 µM,4.62
CCn1c(-c2nonc2N)nc2c(C#CC(C)(C)O)nc(OC[C@@H](N)c3ccccc3)cc21,3.98 µM,7.63
Cn1ccc2c3c(Oc4ccc(NC(N)=O)cc4)ccnc3ccc21,> 100 µM,> 100
Nc1n[nH]c2cc(F)c([C@@H]3Nc4ccc5[nH]ncc5c4[C@H]4C5CCC(C5)[C@@H]34)cc12 (some centres not stated),0.189 µM,9.3
COc1ccc(CCN=C2NC(=O)/C(=C/c3ccc4ncccc4c3)S2)cc1,> 25 µM,> 25
COC[C@H]1Cn2cc(-c3nc(Nc4ccnn4C)ncc3C)nc2C(=O)N1Cc1ccc(F)c(F)c1,,> 100

# Test system: UACC-62 melanoma
# Test: NCI-60 cell line screen, 48 h
SMILES,GI50,TGI [µM]
O=C(CCCSc1nc(-c2ccccc2)cc(-c2ccccc2)n1)NO,1.32 µM,3.21
CC1SC(c2ccc(F)cc2)N(NC(=O)C(O)c2ccccc2)C1=O (configuration not stated),> 100 µM,> 100
COCCOc1ccc(-c2nc3ccc(-c4nc5ccc(N6CCN(C)CC6)cc5[nH]4)cc3[nH]2)cc1,0.365 µM,2.02
Nc1n[nH]c2cccc(C#Cc3cccc(C(=O)Nc4ccc(CN5CCOCC5)c(C(F)(F)F)c4)c3)c12,1.12 µM,3.52
CCC(=C/[C@H](C)C/C=C/C(C)=C/[C@@H](C)C(=O)[C@@H](C)[C@H](O)[C@@H](C)CC)/C=C/[C@H]1OC(=O)C=C[C@@H]1C,< 0.01 µM,0.276
Nc1ccccc1SC(CC(=O)c1ccccc1)c1cccc([N+](=O)[O-])c1 (configuration not stated),13.8 µM,26.9
CN1CC[C@@H](NC(=O)Nc2ccc(C#N)cc2)C[C@@H]1c1nc2ccccc2[nH]1,98.8 µM,> 100
COc1ccc2nc(NC(=O)CSc3nnc4n3S(=O)(=O)c3ccccc3N4c3ccccc3)sc2c1,48.5 µM,> 100
O=C1NC(=NC(CO)Cc2ccccc2)S/C1=C\c1ccc2ncccc2c1 (configuration not stated),14.6 µM and 5.27 µM,> 25
Cc1nnc(NC(=O)c2nc(S(=O)(=O)Cc3ccc(F)cc3)ncc2Cl)s1,1.61 µM,3.01
CC(C)[C@@H]1C=C2CC[C@H]3[C@](C)(CN)CCC[C@]3(C)[C@H]2CC1,16 µM,30.5
O=CNc1ccc2c(c1)C(=O)c1ccccc1-2,,> 100
O=C(Nc1ccc(Oc2ccc(Nc3nc4ccccc4s3)cc2)cc1)Nc1ccc(Cl)c(C(F)(F)F)c1,1.23 µM,2.57
Nc1c(C(=O)Nc2cccc(C(F)(F)F)c2)sc2nc3c(cc12)CCCCC3,2.69 µM,16.7
Nc1ccc(C2=NNC(=O)Cc3cc4c(cc32)OCCO4)cc1Cl,4.42 µM,> 50
COc1ccc2nc3cc(Cl)ccc3c(NCCNCC(C)O)c2c1 (configuration not stated),2.01 µM,4.31
CCn1c(-c2nonc2N)nc2c(C#CC(C)(C)O)nc(OC[C@@H](N)c3ccccc3)cc21,4.89 µM,8.79
Cn1ccc2c3c(Oc4ccc(NC(N)=O)cc4)ccnc3ccc21,> 100 µM,> 100
Nc1n[nH]c2cc(F)c([C@@H]3Nc4ccc5[nH]ncc5c4[C@H]4C5CCC(C5)[C@@H]34)cc12 (some centres not stated),0.218 µM,10
COc1ccc(CCN=C2NC(=O)/C(=C/c3ccc4ncccc4c3)S2)cc1,> 25 µM,> 25
COC[C@H]1Cn2cc(-c3nc(Nc4ccnn4C)ncc3C)nc2C(=O)N1Cc1ccc(F)c(F)c1,0.0228 µM,> 100
